Measurements: patent US11731977B2, “SGC stimulators” (Cyclerion Therapeutics, Inc., priority 2016, dated 2023)

Legend:
[1] = biological target: T1, sGC enzyme (Homo sapiens, UniProt Q02108+Q02153); assay: cGMP GloSensor cell-based assay, 384-well format (Example 2a); details: HEK293 GloSensor 40F cGMP cells; 10 μM DETA-NONOate; 50% of high control (30 μM Compound Y); read-out: Abs EC50
T1 construct: sGC enzyme activity values in HEK cells, determined by the GloSensor assay; host or cells: HEK293 cells stably expressing GloSensor 40F cGMP biosensor
T1 sequence (Q02153 1-619): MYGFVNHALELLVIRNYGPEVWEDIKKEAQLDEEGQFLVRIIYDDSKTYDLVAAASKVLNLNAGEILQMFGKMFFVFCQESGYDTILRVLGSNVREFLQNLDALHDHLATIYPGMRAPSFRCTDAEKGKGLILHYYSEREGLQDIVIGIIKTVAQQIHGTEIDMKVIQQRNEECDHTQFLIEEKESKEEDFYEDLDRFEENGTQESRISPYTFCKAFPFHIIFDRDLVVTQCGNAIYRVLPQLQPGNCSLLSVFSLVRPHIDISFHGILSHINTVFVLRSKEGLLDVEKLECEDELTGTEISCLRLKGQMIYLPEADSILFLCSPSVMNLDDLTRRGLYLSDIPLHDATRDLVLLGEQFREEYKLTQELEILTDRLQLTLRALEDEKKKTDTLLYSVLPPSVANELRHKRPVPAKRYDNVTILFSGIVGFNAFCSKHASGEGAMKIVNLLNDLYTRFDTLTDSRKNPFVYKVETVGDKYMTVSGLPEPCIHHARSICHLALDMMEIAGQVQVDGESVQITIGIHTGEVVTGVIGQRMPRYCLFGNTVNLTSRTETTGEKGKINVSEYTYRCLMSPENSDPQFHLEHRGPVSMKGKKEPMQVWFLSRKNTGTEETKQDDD
T1 sequence (Q02108 1-690): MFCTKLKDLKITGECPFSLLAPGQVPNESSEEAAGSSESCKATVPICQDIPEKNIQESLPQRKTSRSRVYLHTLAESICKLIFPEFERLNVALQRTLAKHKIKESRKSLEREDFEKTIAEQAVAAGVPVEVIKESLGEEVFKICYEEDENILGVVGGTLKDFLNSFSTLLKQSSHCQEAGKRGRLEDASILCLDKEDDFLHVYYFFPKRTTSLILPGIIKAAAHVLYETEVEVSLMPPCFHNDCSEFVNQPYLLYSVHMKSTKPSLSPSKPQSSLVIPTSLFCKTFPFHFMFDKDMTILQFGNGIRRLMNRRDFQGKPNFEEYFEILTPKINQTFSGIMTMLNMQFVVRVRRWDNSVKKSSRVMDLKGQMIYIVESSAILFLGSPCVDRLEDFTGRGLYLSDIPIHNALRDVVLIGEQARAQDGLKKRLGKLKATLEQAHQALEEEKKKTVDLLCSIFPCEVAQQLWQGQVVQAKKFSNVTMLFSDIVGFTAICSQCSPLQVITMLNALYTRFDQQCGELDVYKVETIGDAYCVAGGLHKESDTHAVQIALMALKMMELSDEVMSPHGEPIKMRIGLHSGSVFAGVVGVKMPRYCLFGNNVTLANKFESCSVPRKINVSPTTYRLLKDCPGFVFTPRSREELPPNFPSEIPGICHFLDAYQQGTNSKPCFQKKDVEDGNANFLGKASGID
Summary of the method: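 HEK293 cells expressing GloSensor 40F cGMP biosensor, pre-equilibrated with GloSensor substrate 90 min at 25 °C, then given compound (final 0.029–30000 nM) plus 10 μM DETA-NONOate; luminescence read after 55 min at room temperature. Normalized to 1% DMSO (low) and 30 μM Compound Y (high); Abs EC50 from 4-parameter fit, n=2, geometric mean.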

[2] = test system: cGMP in rat primary neurons; assay: cGMP neuronal cell-based assay (Example 3); details: Primary neuron; rat primary hippocampal neurons; 30 μM DETA-NO; cGMP by LC-MS/MS; 50% of high control (10 μM Compound Y); read-out: Abs EC50
Protocol: Rat primary neurons were isolated from fetuses of 18-day pregnant Sprague-Dawley females. The fetuses were collected in Hanks' balanced salt solution (HBSS) and brains were rapidly removed. The cerebral hippocampi were isolated and mechanically fragmented. Further tissue digestion was performed with 0.25% (wt/vol) trypsin solution in HBSS without Ca2+ and Mg2+ for 15 min at 37° C. After trypsination, cells were washed and resuspended in neurobasal medium supplemented with 0.5 mM L-glutamine, 12.5 uM glutamic acid, 2% B-27 and 100 U/mL penicillin, and 100 μg/mL streptomycin. Cells were plated at a density of 4×10^4 cells/well in a poly-D-lysine coated 384-well flat clear-bottom plate (Corning Cat No 354662). Cells were incubated 6-7 days at 37° C. in a humidified chamber with 5% CO2. Media was removed and cells were washed 1× with HBSS containing Ca2+ and Mg2+, and replaced with 40 uL HBSS containing 0.5 mM IBMX, and incubated for 15 minutes at 37° C. 10 uL of a 5× stock of test compounds with diethylenetriamine NONOate (DETA-NO) was added. Final concentration of DETA-NO was 30 μM. Cells were incubated for 20 min at 37° C. Medium was removed, 50 uL of ice-cold 10% acetic acid was added, and incubated for 60 minutes at 4° C. Following centrifugation at 4° C. for 5 minutes at 1000×g to pellet cell debris, the supernatant was aspirated to a clean plate and the samples were analyzed for cGMP content. cGMP concentrations were determined from each sample using LC-MS/MS.
Data were normalized to a high control using the following equation: 100*(Sample−Low Control)/(High Control−Low Control), where the low control is the average of 15 samples treated with 1% DMSO, and the high control is the average of 15 samples treated with 10 μM a known sGC stimulator Compound Y. Data were fit using a 4-parameter fit (log(agonist) vs. response—variable slope) using GraphPad Prism Software v.5. n=2 for all compounds. The Absolute EC50 was interpolated from the curve fit and is defined as the concentration at which a given compound elicits 50% of the high control response. Compounds failing to elicit a minimum response of 50% are reported as >30 μM. For compounds run in duplicate or n higher than 2, the result herein given is the geometric mean of the several results obtained.

[3] = test system: Sprague-Dawley rats, streptozotocin model; assay: Rat model of diabetic neuropathy (STZ model), paw pressure test (Example 14); assay type: in vivo; details: Compound I-1 10 mg/kg p.o., gabapentin 100 mg/kg p.o., morphine 4 mg/kg s.c., mean±s.e.m.
[4] = test system: male Long Evans rats; assay: Novel Object Recognition (NOR) test, MK-801-induced memory disruption (Example 10); assay type: in vivo, rat; details: for Recognition Index, Mean: 0 to 3 minute time bin
Excerpt: Objective. To assess the efficacy of compounds of the invention in reversing memory disruption induced by MK-801 using the Novel Object Recognition (NOR) test in male Long Evans rats. The NOR is a test of recognition learning and memory retrieval, which takes advantage of the spontaneous preference of rodents to investigate a novel object compared with a familiar one (Ennaceur and Delacour, 1988). […] The NOR test has been employed extensively to assess the potential cognitive-enhancing properties of novel test compounds. […] In the present study, a memory saving model was used to test the novel compound—MK-801 (Dizocilpine), an uncompetitive antagonist of the NMD A receptor was used to cause deficit of recognition memory. Compounds of the invention were evaluated through its efficacy in reversing memory impairment.
Animals. Adult male Long-Evans rats (275-299 gram at arrival from Envigo, Indianapolis, Ind.) were used in this study. Rats were placed in the experimental rooms and assigned unique identification numbers (tail marks). Rats were housed 2 per cage in polycarbonate cages with filter tops and acclimated for at least 7 days prior to testing. Animal room was maintained in a 12/12 h light/dark cycle (lights on at 07.00 EST), 22±1° C. and relative humidity at approximately 50%. Food and water were provided ad libitum. All animals were examined, handled and weighed prior to the study to assure adequate health and to minimize the non-specific stress associated with testing. Each animal was randomly assigned across the treatment groups. The experiments were conducted during the animal's light cycle phase.
MK-801 (0.1 mg/kg; Sigma-Aldrich) was dissolved in saline and injected IP 15 min prior to NOR training.
Galantamine (1 mg/kg; Tocris) was dissolved in saline and injected IP 15 minutes prior to training.
Compound I-1 (0.01, 0.1, and 1 mg/kg) was oral administrated 60 minutes prior to training. The dose volume was 4 ml/kg
Experimental procedures. NOR test was conducted in an open-field arena (40×40 cm) placed in a sound-attenuated room under dimmed lighting. Each rat was tested separately and care was taken to remove olfactory/taste cues by cleaning the arena and test objects with 70% alcohol between trials and rats. All training and testing trials were video-taped and scored by an observer blind to treatments.
On Days 1 and 2, rats were allowed to freely explore the arena (no objects inside) for a 5-minute habituation period. On Day 3 (training and testing day), rats were administered vehicle (saline), galantamine or compound solutions followed by MK-801 or vehicle (saline). After the pretreatment time, each animal was placed into the test arena in the presence of two identical objects. Each rat was placed in the arena facing the same direction at the same position, and the time spent actively exploring the objects during a 3-minute training period (T1) was recorded. The rat was returned to its home cage following training. NOR test (T2) was conducted 1 hours after T1. Each rat was placed back into the test arena in the presence of one familiar object and one novel object for 5 minutes, and the time spent exploring both objects was recorded during 0-1, 0-3 and 0-5 min time ranges. The presentation order and position of the objects (left/right) in T2 was randomized between rats to prevent bias from order or place preference.
Statistical Analysis. Data of NOR test (T2) were expressed as Recognition Index, which is defined as the ratio of the time spent exploring the novel object over the total time spent exploring both objects (Novel/(Familiar+Novel)×100%) during the test session. Data were analyzed by using one-way ANOVA followed by Fisher's LSD post hoc test on 0-1, 0-3 and 0-5 minute time range separately, with significance set at P<0.05. […] And then statistical outliers that fell above or below two standard deviations from the mean were removed from the final analysis. […]

[5] = test system: rats; assay: Inflammatory pain: kaolin, gait score (Example 13); assay type: in vivo, rat; details: Indomethacin 30 mg/kg p.o.
Protocol: Kaolin. Induction: In rats, unilateral arthritis was induced by an intra-articular injection of a 10% kaolin suspension into the knee joint of the right hind paw under gas anesthesia (3.5% isoflurane/3 L/min). Gait score: The gait score will be evaluated 3 h 30 min after kaolin administration by:
2: intermittent raising of the paw

[6] = test system: rats; assay: Inflammatory pain: carrageenan, paw pressure test (Example 13); assay type: in vivo, rat; details: Indomethacin 30 mg/kg p.o.

FC(F)(F)c1n[nH]c(-c2cn3ncnc3c(Cc3ccccc3)n2)n1 [Compound I-15, 8-Benzyl-6-(3-(trifluoromethyl)-1H-1,2,4-triazol-5-yl)-[1,2,4]triazolo[1,5-a]pyrazine]
EC50 [1]: 100 to 1000 nM
EC50 [2]: 100 to 1000 nM

NCC1(CC(=O)O)CCCCC1 [Gabapentin]
nociceptive threshold (paw pressure test) ([3]; D18, 60 min post administration): 272 ± 6.6 g
nociceptive threshold (paw pressure test) ([3]; D18, 120 min post administration): 302 ± 17.7 g
nociceptive threshold (paw pressure test) ([3]; D21, 120 min after dosing): 274 ± 19.2 g

COc1ccc2c3c1O[C@H]1C[C@@H](O)C=C[C@@]31CCN(C)C2 [Galantamine, reference compound]
Recognition Index, Mean ([4]; Galantamine (1 mg/kg IP) + MK-801): 66.2%

COc1ccc2c(c1)c(CC(=O)O)c(C)n2C(=O)c1ccc(Cl)cc1 [Indomethacin, reference compound]
% of activity vs. vehicle [5]: 58%
% of activity vs. vehicle [6]: 100%

C[C@]12N[C@H](Cc3ccccc31)c1ccccc12 [MK-801, MK-801 (Dizocilpine), reference compound]
Recognition Index, Mean ([4]; Vehicle + MK-801 (0.1 mg/kg IP)): 54.1%
effect on recognition memory (Recognition Index approaching chance level, 50%) ([4]; MK-801 0.1 mg/kg IP, 0-1, 0-3 and 0-5 min): caused a strong memory deficit
